# Source: PubChem BioAssay (NCI)
#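 Growth conditions: 96-well plates. Treatment: test compound, 48 hours, 5 concentrations. Analysis: linear interpolation between bracketing concentrations; unreached endpoints set to highest concentration. GI50 marks 50% less growth. TGI: concentration producing complete growth inhibition.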
# Columns and labels:
# Assay in all cases: DTP human tumour cell line panel, 48 h
# 786-0 renal = tested on: 786-0 renal
# HCC-2998 colon = tested on: HCC-2998 colon
# HCT-116 colon = tested on: HCT-116 colon
# HCT-15 colon = tested on: HCT-15 colon
# HL-60(TB) leukemia = tested on: HL-60(TB) leukemia
# SF-268 CNS = tested on: SF-268 CNS
# SF-539 CNS = tested on: SF-539 CNS
# SK-MEL-5 melanoma = tested on: SK-MEL-5 melanoma
# SK-OV-3 ovarian = tested on: SK-OV-3 ovarian
# UO-31 renal = tested on: UO-31 renal
SMILES,GI50 (786-0 renal) [µM],TGI (786-0 renal) [µM],GI50 (HCC-2998 colon) [µM],TGI (HCC-2998 colon) [µM],GI50 (HCT-116 colon) [µM],TGI (HCT-116 colon) [µM],GI50 (HCT-15 colon) [µM],TGI (HCT-15 colon) [µM],GI50 (HL-60(TB) leukemia) [µM],TGI (HL-60(TB) leukemia) [µM],GI50 (SF-268 CNS) [µM],TGI (SF-268 CNS) [µM],GI50 (SF-539 CNS) [µM],TGI (SF-539 CNS) [µM],GI50 (SK-MEL-5 melanoma) [µM],TGI (SK-MEL-5 melanoma) [µM],GI50 (SK-OV-3 ovarian) [µM],TGI (SK-OV-3 ovarian) [µM],GI50 (UO-31 renal) [µM],TGI (UO-31 renal) [µM]
CCN(CC)CCN1CC(O)=C(c2nc(-c3ccc(Cl)cc3)cs2)C1=N,1.62,3.19,1.95,3.91,1.78,4.16,1.58,3.42,1.5,3.5,1.87,3.93,1.55,3.11,1.63,3.02,4.76,25.2,3.83,20.2
COc1ccc2c(c1)C=C([N+](=O)[O-])C(C1OC(C)(C)OC1C1COC(C)(C)O1)O2 (stereo not given),,26.5,,27.7,,4.04,,5.2,,5.49,,13.5,,19.3,,9.17,,24.2,,26.3
CN(C)CCNC(=O)c1cccc(C(=O)Nc2ccccc2)c1[N+](=O)[O-],,> 100,,> 100,,> 100,,> 100,,> 100,,> 100,,> 100,,> 100,,> 100,,> 100
N.N.N.N.N.O=C([O-])c1nn[n-]n1.[Cl-].[Co+3],> 100,> 100,> 100,> 100,> 100,> 100,> 100,> 100,> 100,> 100,> 100,> 100,> 100,> 100,> 100,> 100,> 100,> 100,> 100,> 100
CC(C)(C)OC(=O)Cc1ccc2c(ccn2Cc2ccccc2)c1,,> 100,,> 100,,> 100,,> 100,,> 100,,> 100,,> 100,,> 100,,> 100,,> 100
COC(=O)C1=NC(=S)NC(c2ccccc2)C1c1nc2ccccc2s1 (stereo not given),,> 100,,> 100,,> 100,,> 100,,> 100,,> 100,,> 100,,> 100,,> 100,,> 100
O=C(CCl)Nc1ccc(Cl)cc1,4.64,19.5,11.3,24.9,2.7,10.2,2.27,6.33,,,2.72,7.66,3.78,12.6,1.71,3.16,6.93,23,8.07,24.1
Cc1ccc(N(C(=O)CC(=O)NN)C(=O)c2ccccc2Cl)cc1,,> 100,,> 100,,> 100,,> 100,,> 100,,> 100,,> 100,,,,> 100,,> 100
CC(C)=CCC/C(=C/CC/C(C)=C/CCc1ccoc1)C(=O)O,,> 100,,> 100,,> 100,,> 100,,,,> 100,,> 100,,> 100,,> 100,,> 100
Cc1cc(SCC(=O)c2ccccc2)nc2ccccc12,,> 100,,,,> 100,,> 100,,> 100,,> 100,,> 100,,> 100,,,,> 100
Cc1noc(C)c1CCCOC1COc2ccccc2OCCOCCOc2ccccc2OC1,,> 100,,> 100,,,,> 100,,> 100,,> 100,,> 100,,> 100,,> 100,,> 100
COC(=O)c1cc(Br)c(Br)n1C,,> 100,,> 100,,> 100,,,,> 100,,> 100,,> 100,,> 100,,> 100,,> 100
CC(=O)OC1Oc2ccccc2-c2oc(=O)c(-c3cc4ccc(N(C)C)cc4oc3=O)cc21 (stereo not given),15.7,39.3,,,1.42,21.7,24.3,> 100,8.16,> 100,10.6,32.2,12.4,27.3,3.46,15.4,13,45.5,16.9,48.8
CN(C)P(=O)(/C(N)=N/Nc1ccc([N+](=O)[O-])cc1)N(C)C,,> 100,,> 100,,> 100,,> 100,,> 100,,> 100,,> 100,,> 100,,,,> 100
CCOC(=O)CN=c1nc(SC)sc2c(C(=O)OCC)nc(Sc3ccccc3)n12,,> 100,,> 100,,> 100,,,,> 100,,> 100,,,,> 100,,> 100,,> 100
CCOC1=NC(=O)CC(c2ccccc2)S1 (stereo not given),,> 100,,> 100,,> 100,,> 100,,> 100,,> 100,,> 100,,> 100,,,,> 100
O=C(O)CP(=S)(S)c1ccccc1 (stereo not given),,> 100,,,,,,,,> 100,,> 100,,> 100,,> 100,,> 100,,> 100
COc1cc2oc(-c3ccc(O)cc3)cc(=O)c2c(OC)c1OC,,> 100,,> 100,,> 100,,> 100,,> 100,,> 100,,> 100,,> 100,,,,> 100
O=C1c2ccccc2-c2c1c1ccccc1c(=O)n2Cc1ccccc1,,> 100,,,,> 100,,> 100,,> 100,,> 100,,> 100,,> 100,,> 100,,> 100
Cc1ccc(Nc2nc3c(s2)C(=O)c2ccccc2C3=O)c(C)c1,,32.5,,31.8,,,,41.5,,6.02,,24.1,,31.4,,28.2,,62.5,,27.3
